Reference: US20240226228A1, “ANTIMICROBIAL PEPTOID HAVING IMPROVED SELECTIVITY AND ANTIMICROBIAL COMPOSITION COMPRISING SAME” (priority 2021, published 2024)
Where a SMILES comes first, the peptide text is derived from it. [ ]: non-standard residue; d: D form. Gly(N(CH2)2(3-indolyl)) = O=C(O)CNCCc1c[nH]c2ccccc12; Nspe = C[C@H](NCC(=O)O)c1ccccc1; Nphe = O=C(O)CNCc1ccccc1; Nlys = NCCCCNCC(=O)O

System: red blood cells
Assay: Hemolysis assay
Type: cell-based, Sprague-Dawley mouse
Description: To confirm cytotoxicity by the hemolytic activity of each peptoid synthesized in Example 1, hemolysis analysis was performed. The used blood was collected from a 13-week-old male Sprague-Dawley […] in a tube containing 158 UPS sodium heparin for preventing coagulation, and centrifuged at 4° C. for 10 minutes at 1,000 rpm. Afterward, the plasma was carefully removed, red blood cells were washed with phosphate-buffered saline (PBS: a mixed solution of 35 mM phosphate-buffered solution/150 mM NaCl, pH 7.4) three times and centrifuged at 1,000 rpm for 10 minutes. A 10% (v/v) red blood cell solution diluted in PBS was dispensed at 150 μL into a 96-well plate (microtiter plate), a peptoid solution was added at 50 μL, and 1% Triton X-100 was added. Afterward, the red blood cells were incubated at 37° C. for 1 hour, and the incubated 96-well plate was centrifuged at 1,000 rpm for 15 minutes. A supernatant was obtained and transferred to a new 96-well plate at 150 μL, and absorbance was measured using a spectrophotometer at 540 nm. Percent hemolysis may be calculated by the following Equation 1, and the corresponding results are shown in Tables 11 to 13. % Hemolysis=(A−C)/(B−C)×100 [Equation 1] In Equation 1, A is the absorbance of the peptoid solution at 540 nm, B is the absorbance of the 0.1% Triton X-100 at 540 nm, and C is the absorbance of the PBS solution at 540 nm.

Structure (SMILES)	HC10 [µM]	HC50 [µM]	Hmax (100 μM) [%]
C[C@@H](c1ccccc1)N(CC(N)=O)C(=O)CN(C(=O)CN(CCCCN)C(=O)CN(C(=O)CN(C(=O)CN(CCCCN)C(=O)CN(C(=O)CN(C(=O)CN(CCCCN)C(=O)CN(C(=O)CN(C(=O)CN(CCCCN)C(=O)CNCCc1c[nH]c2ccccc12)[C@@H](C)c1ccccc1)[C@@H](C)c1ccccc1)[C@@H](C)c1ccccc1)[C@@H](C)c1ccccc1)[C@@H](C)c1ccccc1)[C@@H](C)c1ccccc1)[C@@H](C)c1ccccc1 [Peptoid 3]	6.3	13.9	100.5 ± 9.9
C[C@@H](c1ccccc1)N(CC(=O)N(CCCCN)CC(=O)N(CC(=O)N(CC(=O)N(CCCCN)CC(=O)N(CC(=O)N(CC(=O)N(CCCCN)CC(=O)N(CC(=O)N(CC(=O)N(CCc1c[nH]c2ccccc12)CC(N)=O)[C@@H](C)c1ccccc1)[C@@H](C)c1ccccc1)[C@@H](C)c1ccccc1)[C@@H](C)c1ccccc1)[C@@H](C)c1ccccc1)[C@@H](C)c1ccccc1)C(=O)CN(C(=O)CNCCCCN)[C@@H](C)c1ccccc1 [Peptoid 4] (H-[Nlys][Nspe][Nspe][Nlys][Nspe][Nspe][Nlys][Nspe][Nspe][Nlys][Nspe][Nspe][Gly(N(CH2)2(3-indolyl))]-NH2)	< 6.3	6.7	103.2 ± 0.9
C[C@@H](c1ccccc1)N(CC(=O)N(CCCCN)CC(=O)N(CC(=O)N(CC(=O)N(CCCCN)CC(=O)N(CC(=O)N(CC(=O)N(CCCCN)CC(=O)N(CC(=O)N(CC(=O)N(CCc1c[nH]c2ccccc12)CC(N)=O)[C@@H](C)c1ccccc1)[C@@H](C)c1ccccc1)[C@@H](C)c1ccccc1)[C@@H](C)c1ccccc1)[C@@H](C)c1ccccc1)[C@@H](C)c1ccccc1)C(=O)CN(C(=O)CN(CCCCN)C(=O)CNCCc1c[nH]c2ccccc12)[C@@H](C)c1ccccc1 [Peptoid 5] (H-[Gly(N(CH2)2(3-indolyl))][Nlys][Nspe][Nspe][Nlys][Nspe][Nspe][Nlys][Nspe][Nspe][Nlys][Nspe][Nspe][Gly(N(CH2)2(3-indolyl))]-NH2)	< 6.3	15.3	108.1 ± 2.7
C[C@@H](c1ccccc1)N(CC(N)=O)C(=O)CN(C(=O)CN(CCCCN)C(=O)CN(C(=O)CN(C(=O)CN(CCCCN)C(=O)CN(C(=O)CN(C(=O)CN(CCCCN)C(=O)CN(C(=O)CN(C(=O)CN(CCCCN)C(=O)CN(CCc1c[nH]c2ccccc12)C(=O)CNCCc1c[nH]c2ccccc12)[C@@H](C)c1ccccc1)[C@@H](C)c1ccccc1)[C@@H](C)c1ccccc1)[C@@H](C)c1ccccc1)[C@@H](C)c1ccccc1)[C@@H](C)c1ccccc1)[C@@H](C)c1ccccc1 [Peptoid 6]	9.6	22.0	101.6 ± 5.8
C[C@@H](c1ccccc1)N(CC(N)=O)C(=O)CN(C(=O)CN(CCCCN)C(=O)CN(CCc1c[nH]c2ccccc12)C(=O)CN(C(=O)CN(CCCCN)C(=O)CN(C(=O)CN(C(=O)CN(CCCCN)C(=O)CN(C(=O)CN(C(=O)CNCCCCN)[C@@H](C)c1ccccc1)[C@@H](C)c1ccccc1)[C@@H](C)c1ccccc1)[C@@H](C)c1ccccc1)[C@@H](C)c1ccccc1)[C@@H](C)c1ccccc1 [Peptoid 8]	12.8	28.4	105.1 ± 2.2
C[C@@H](c1ccccc1)N(CC(N)=O)C(=O)CN(C(=O)CN(CCCCN)C(=O)CN(C(=O)CN(CCCCN)C(=O)CN(CCCCN)C(=O)CN(C(=O)CN(C(=O)CN(CCCCN)C(=O)CN(C(=O)CN(C(=O)CN(CCCCN)C(=O)CN(CCc1c[nH]c2ccccc12)C(=O)CNCCc1c[nH]c2ccccc12)[C@@H](C)c1ccccc1)[C@@H](C)c1ccccc1)[C@@H](C)c1ccccc1)[C@@H](C)c1ccccc1)[C@@H](C)c1ccccc1)[C@@H](C)c1ccccc1 [Peptoid 35]	20.4	63.0	82.6 ± 3.2
C[C@@H](c1ccccc1)N(CC(N)=O)C(=O)CN(C(=O)CN(CCCCN)C(=O)CN(C(=O)CN(C(=O)CN(CCCCN)C(=O)CN(C(=O)CN(C(=O)CN(CCCCN)C(=O)CN(C(=O)CN(CCCCN)C(=O)CN(CCCCN)C(=O)CN(CCc1c[nH]c2ccccc12)C(=O)CNCCc1c[nH]c2ccccc12)[C@@H](C)c1ccccc1)[C@@H](C)c1ccccc1)[C@@H](C)c1ccccc1)[C@@H](C)c1ccccc1)[C@@H](C)c1ccccc1)[C@@H](C)c1ccccc1 [Peptoid 36]	15.3	39.4	89.1 ± 3.4
C[C@@H](c1ccccc1)N(CC(=O)N(CCCCN)CC(=O)N(CC(=O)N(CC(=O)N(CCCCN)CC(=O)N(CC(=O)N(CC(=O)N(CCCCN)CC(=O)N(CC(=O)N(CC(=O)N(CC(N)=O)Cc1ccccc1)[C@@H](C)c1ccccc1)[C@@H](C)c1ccccc1)[C@@H](C)c1ccccc1)[C@@H](C)c1ccccc1)[C@@H](C)c1ccccc1)[C@@H](C)c1ccccc1)C(=O)CN(C(=O)CN(CCCCN)C(=O)CNCc1ccccc1)[C@@H](C)c1ccccc1 [Peptoid 42] (H-[Nphe][Nlys][Nspe][Nspe][Nlys][Nspe][Nspe][Nlys][Nspe][Nspe][Nlys][Nspe][Nspe][Nphe]-NH2)	< 3.1	6.6	105.9 ± 1.1
C[C@@H](c1ccccc1)N(CC(N)=O)C(=O)CN(C(=O)CN(CCCCN)C(=O)CN(C(=O)CN(C(=O)CN(CCCCN)C(=O)CN(C(=O)CN(C(=O)CN(CCCCN)C(=O)CN(C(=O)CN(C(=O)CN(CCCCN)C(=O)CN(Cc1ccccc1)C(=O)CNCc1ccccc1)[C@@H](C)c1ccccc1)[C@@H](C)c1ccccc1)[C@@H](C)c1ccccc1)[C@@H](C)c1ccccc1)[C@@H](C)c1ccccc1)[C@@H](C)c1ccccc1)[C@@H](C)c1ccccc1 [Peptoid 43]	< 3.1	6.4	105.6 ± 3.8
C[C@@H](c1ccccc1)N(CC(N)=O)C(=O)CN(CCCCN)C(=O)CN(C(=O)CN(C(=O)CN(CCCCN)C(=O)CN(C(=O)CN(C(=O)CN(CCCCN)C(=O)CN(C(=O)CN(CCCCN)C(=O)CN(CCCCN)C(=O)CN(C(=O)CNCCc1c[nH]c2ccccc12)[C@@H](C)c1ccccc1)[C@@H](C)c1ccccc1)[C@@H](C)c1ccccc1)[C@@H](C)c1ccccc1)[C@@H](C)c1ccccc1)[C@@H](C)c1ccccc1 [Peptoid 61]	19.3	65.4	79.9 ± 0.7
C[C@@H](c1ccccc1)N(CC(N)=O)C(=O)CN(CCCCN)C(=O)CN(C(=O)CN(C(=O)CN(CCCCN)C(=O)CN(C(=O)CN(CCCCN)C(=O)CN(CCCCN)C(=O)CN(C(=O)CN(C(=O)CN(CCCCN)C(=O)CN(C(=O)CNCCc1c[nH]c2ccccc12)[C@@H](C)c1ccccc1)[C@@H](C)c1ccccc1)[C@@H](C)c1ccccc1)[C@@H](C)c1ccccc1)[C@@H](C)c1ccccc1)[C@@H](C)c1ccccc1 [Peptoid 62]	36.2	> 100	44.8 ± 8.1
C[C@@H](c1ccccc1)N(CC(N)=O)C(=O)CN(CCCCN)C(=O)CN(C(=O)CN(CCCCN)C(=O)CN(CCCCN)C(=O)CN(C(=O)CN(C(=O)CN(CCCCN)C(=O)CN(C(=O)CN(C(=O)CN(CCCCN)C(=O)CN(C(=O)CNCCc1c[nH]c2ccccc12)[C@@H](C)c1ccccc1)[C@@H](C)c1ccccc1)[C@@H](C)c1ccccc1)[C@@H](C)c1ccccc1)[C@@H](C)c1ccccc1)[C@@H](C)c1ccccc1 [Peptoid 63]	85.0	> 100	12.7 ± 0.9
